≈ marks a conversion by molar mass, not a printed value. Where “and” joins values, the source holds several entries; their conditions need not be identical. Equal values may be shown once. Read-outs that look alike come from different tables or passages of the source.
Assays:
[1] = tested on: vancomycin-resistant Enterococcus spp. (VRE); assay: Broth microdilution MIC (CLSI), Example 1; assay type: cell-based; settings: for MIC90: Enterococcus isolates of Table 4; for MIC: Enterococcus, VRE, read-out: MIC
Protocol: Cation adjusted Mueller Hinton Broth (CAMHB) was prepared using 100 mL sterile Mueller Hinton broth (pH adjusted). To each 100 mL volume, 125 μL of calcium stock solution (10 mg Ca^2+ per ml) and 43 μL magnesium stock solution (10 mg Mg^2+ per mL) was aseptically added. Sufficient broth is made up for daily use, with unused portions being stored at 4° C. overnight.
Potency was described as 1000 mg/g or 100%. The powder was dissolved in 10 mL DMSO and 1 mL volumes were aliquoted into eppendorf tubes and stored at −80° C.
Serial dilutions were prepared in 96 well plates were set up in a safety cabinet according to methods standard in the art. Briefly: 90 μL of the working antibiotic solution was added to each well in Column 12 of the plate, and mixed well, before 90 μL was transferred to column 11. The solutions were mixed again, and then transferred to the next column as before, continuing the dilutions through to column 3. Mixing the well requires the pick up and expulsion of 90 μL in each well 3-4 times before picking up and transferring the 90 μL to the next well. […] The trays were set up as follows: 2 strains were tested in duplicate in one tray, such that strain 1 was located in rows A to D, strain 2 was located in rows E to H, etc.
Fresh cultures of bacteria were prepared for testing on sheep blood agar (SBA), and overnight incubation at 37° C. as follows; 2-3 colonies of each strain in 7 mL sterile saline, and the OD600 measured as an indication of the density (approx. […] or 0.5 McFarland Standard). The bacterial suspension was adjusted to a final absorbance of 0.08 to 0.100, using saline to achieve correct density, and as the blank. Within 15 minutes of preparation, the adjusted bacterial suspension with sterile saline 1:20 (1 mL into 19 mL sterile saline) to achieve a final bacterial concentration of 4 to 5×10^6 CFU/mL. The bacterial solution was placed into a sterile trough and 10 μL of bacterial solution added into wells 2 through to 12 on each required row (dilution of 1:10, with final concentration of bacteria in wells=5×10^5 CFU/mL). The tray was sealed and incubated at 37° C. for 18-24 h. The purity of bacterial suspension was confirmed by streaking out 50 μL of the 1:20 dilution onto a SBA plate, which was incubated for 37° C. for 18 h and examined. Viable counts were carried out to ensure that the correct concentration of bacteria and been added to the wells. The diluted bacterial solution (4 to 5×10^6 CFU/mL) was diluted 1:10 downwards by adding 100 μL to 900 μL of sterile saline in sterile tubes, and the serial dilutions continued 1:10 for 5 tubes. 100 μL (4-5 drops) of the 4th and 5th dilutions (tube 4=105 and tube 5=10^6 CFU/ml) was plated around in duplicate on pre-dried PCA agar plates and incubated at 37° C. overnight. The following day the number of colonies on the plates was counted and the average count in 100 μL obtained. The study was multiplied by 10 to obtain a viable bacterial count per mL.
Minimum inhibitory concentrations (μg/mL) were determined using the broth microdilution method recommended by the Clinical and Laboratory Standards Institute (CLSI) (Methods for Dilution Antimicrobial Susceptibility Tests for Bacteria That Grow Aerobically; Approved Standard—Seventh Edition. CLSI M7-A7, 2006; Performance Standards for Antimicrobial Disk and Dilution Susceptibility Tests for Bacteria Isolated from Animals; Approved Standard—Second Edition. CLSI M31-A2, 2002; Performance Standards for Antimicrobial Susceptibility Testing; CLSI M2-A9, 2006).
MIC breakpoints were determined by visual assessment and then confirmed using an ELISA plate reader, measuring absorbance levels at 450 nm. Bacterial growth (turbidity) in the wells with antimicrobial was compared with the amount of growth (turbidity) in the growth-control well (containing no antimicrobial).

[2] = tested on: S. aureus clinical isolates (MRSA and MSSA); assay: Broth microdilution MIC, Example 4; assay type: cell-based, Staphylococcus aureus
Protocol: Microtiter plates containing two-fold dilutions of each antimicrobial agent were inoculated with ˜10^5 CFU/ml of each isolate in a 100 μL final volume. Plates were incubated for 24 h at 37° C. Turbidity (absorbance at OD600) was measured using a Bio-Rad Benchmark Plus microplate spectrophotometer in Microplate Manager® version 5.2.1 (Bio-Rad). Minimum inhibitory concentration (MIC) endpoints were defined as the lowest antimicrobial concentration assessed by the spectrophotometer that inhibited bacterial growth. ATCC 49775 was included in the isolate collection as a control organism using breakpoints defined by the CLSI. The MIC50, MIC90 (concentrations that inhibited growth of the lower 50% and 90% of total organisms, respectively), and MIC range (minimum and maximum) were calculated to profile the antimicrobial susceptibility of the isolate collection.

[3] = tested on: Staphylococcus aureus T3-129 / Staphylococcus spp. MK1; assay: Synergy studies, checkerboard method (FIC index); assay type: cell-based

N=C(N/N=C/c1ccc(Cl)cc1)N/N=C/c1ccc(Cl)cc1 [NCL812, 1,3-bis[(E)-(4-chlorophenyl)methyleneamino]guanidine]
MIC range ([1]; E. faecalis, 4 isolates): 2 to 4 mg/L
MIC range ([1]; E. faecium, 16 isolates): 2 to 4 mg/L
MIC90 ([1]; Test 1): 4 mg/L (≈ 12 µM)
MIC90 ([1]; Test 2): 4 mg/L (≈ 12 µM)
MIC ([1]; B09/2087, Test 1): 2 mg/L (≈ 5.98 µM)
MIC ([1]; Enterococcus 011, Test 1): 2 mg/L (≈ 5.98 µM)
MIC ([1]; Enterococcus 012, Test 1): 2 mg/L (≈ 5.98 µM)
MIC ([1]; Enterococcus 012, Test 2): 2 mg/L (≈ 5.98 µM)
MIC ([1]; Enterococcus 013, Test 1): 2 mg/L (≈ 5.98 µM)
MIC ([1]; Enterococcus 013, Test 2): 2 mg/L (≈ 5.98 µM)
MIC ([1]; VRE 001, Test 1): 2 mg/L (≈ 5.98 µM)
MIC ([1]; VRE 001, Test 2): 2 mg/L (≈ 5.98 µM)
MIC ([1]; VRE 003, Test 1): 2 mg/L (≈ 5.98 µM)
MIC ([1]; VRE 003, Test 2): 2 mg/L (≈ 5.98 µM)
MIC ([1]; VRE 005, Test 1): 2 mg/L (≈ 5.98 µM)
MIC ([1]; VRE 005, Test 2): 2 mg/L (≈ 5.98 µM)
MIC ([1]; VRE 006, Test 1): 2 mg/L (≈ 5.98 µM)
MIC ([1]; VRE 006, Test 2): 2 mg/L (≈ 5.98 µM)
MICrange ([2]; CA-MRSA (n = 10)): 2 to 4 µg/mL
MICrange ([2]; Methicillin-susceptible staphylococci (n = 10)): 2 to 8 µg/mL
MICrange ([2]; Total bacterial isolates (n = 30)): 2 to 8 µg/mL
FIC2 ([3]; MIC of NCL812 in combination with Chloramphenicol/MIC of NCL812 alone, S. aureus strain T3-29): 0.25 and 0.5
FIC2 ([3]; MIC of NCL812 in combination with Erythromycin/MIC of NCL812 alone, S. aureus strain T3-29): 0.5 and 0.25
FIC2 ([3]; MIC of NCL812 in combination with Penicillin G/MIC of NCL812 alone, Staphylococcus spp. Strain MK1): 0.5
FIC2 ([3]; MIC of NCL812 in combination with Sulfamethoxazole/MIC of NCL812 alone, Staphylococcus spp. Strain MK1): 0.25 and 0.5
NCL812 MIC Alone ([3]; Staphylococcus spp. Strain MK1, NCL812 alone): 2 mg/L
NCL812 MIC With Antibiotic ([3]; with Erythromycin, S. aureus strain T3-29): 2 mg/L
NCL812 MIC With Antibiotic ([3]; with Penicillin G, Staphylococcus spp. Strain MK1): 2 mg/L
NCL812 MIC With Antibiotic ([3]; with Sulfamethoxazole, Staphylococcus spp. Strain MK1): 1 mg/L and 2 mg/L
